Data taken from US10556926B2, “Synthetic artificial peptides with antimicrobial effect” (priority 2014, dated 2020).
Like-named read-outs stand apart in the source and are kept apart here. No end group written: not given here.

Tests used:
E. coli DH5α = system: E. coli DH5α
Experimental: (§1) The minimum inhibitory concentration (MIC) of the peptides was carried out by way of example against gram(−) E. coli DH5α (and gram(+) Staphylococcus xylosus (both Deutsche Sammlung von Mikroorganismen and Zellkulturen, DSMZ) in a standardized microdilution method according to the general guidelines of the CLSI (Clinical and Laboratory Standards Institute 2006) and EUCAST (European Committee for Antimicrobial Susceptibility Testing of the European Society of Clinical Microbiology and Infectious Diseases 2003) with slight adaptations to the investigation of cationic antimicrobial peptides (Wiegand et al. 2008). The bacteria cells were cultivated in Mueller-Hinton-Boullion (MHB) to an optical density of 0.4 to 0.6 at 600 nm wavelength, corresponding to about 4·10^8 bacteria per ml. Then, the bacteria cultures were diluted to a bacteria concentration of about 1·10^5 bacteria per ml in sterile MHB. Using the peptides, series of 2-fold dilutions starting at 128 μM to the smallest dilution of 0.5 μM in MHB were prepared. The peptide dilutions were mixed with the dilute bacteria cultures in a […] in the chambers of a 96-well polypropylene microtiter plate (Starlab, Hamburg, Germany), so that the peptides were present in an end concentration between 64 μM and 0.25 μM at a bacteria concentration of 5·10^4 bacteria/ml. Sterile MHB served as negative control, and the positive control used as the corresponding bacteria concentration in MHB without the addition of peptide. The microtiter plates were incubated for 18 hours at 37° C. with shaking at 120 rpm in a climatically controlled chamber. After the incubation, the bacteria concentration was determined by renewed absorption measurement at a wavelength of 600 nm.

Staphylococcus xylosus = system: Staphylococcus xylosus
Experimental: as §1

[1] = system: human histiocytic lymphoma cell line U937; assay: Long-term growth inhibition, minimum toxic concentration (MTC)
Experimental: The cytotoxic potential of the antimicrobial peptides was determined by way of example by reference to the human histiocytic lymphoma cell line U937 (DSMZ). The influence of the peptides on the permeability of the cell membrane and their longer-term growth-inhibiting effect was investigated. 15 ml of RPMI 1640 medium with 2 mM glutamine and 10% FCS (Biochrom, Berlin, Germany) were inoculated with 1·10^5 cells per ml and cultivated for three days at 37° in T75 cell culture bottles (TPP, Trasadingen, Switzerland) with constant gassing with 5% CO2 in a climatically controlled chamber. The medium was admixed with 10 U/ml penicillin and […] streptomycin (both AppliChem, Darmstadt, Germany) to avoid bacterial contaminations, with no further antibiotics being added during the subsequent recultivation. Before each experiment, the cells were washed by centrifugation at 100 g for five minutes and subsequent resuspension in RPMI 1640 medium with 2 mM glutamine and 10% FCS in each case two times and adjusted to a concentration of 1·10^5 cells per ml. Finally, in each case 100 μl of the U937 cells were transferred to the reaction chambers of a sterile 96-well polypropylene microtiter plate and admixed with in each case 100 μl of a prediluted antimicrobial peptide in RPMI 1640 medium without antibiotic addition, such that end concentrations of in each case 5·10^4 cells per ml at peptide concentrations between 0.25 μM and 64 μM were present. The negative control used was samples without antimicrobial peptide, while Triton X-100 (AppliChem) was used in an end concentration of 5% as positive control for the permeabilization. The samples were cultivated for two hours at 37° C. and with continuous gassing with 5% CO2 in a climatically controlled chamber. Then, in each case 100 μl of each sample were removed and transferred to new sterile microtiter plates for determining the direct membrane damage. The remaining 100 μl of the samples were cultivated for at least four further days.
For this purpose, 10 μl of lysing solution were added to in each case 100 μl of cell suspension and incubated for 60 minutes at 37° C. Then, the cell culture supernatants were investigated as described above. The lowest peptide concentration at which complete suppression of the cell growth was established after four days was stipulated as the minimum toxic concentration (MTC).

[2] = system: human histiocytic lymphoma cell line U937; assay: Cytotoxicity, direct membrane damage (CytoTox 96), LD50; format: cell-based; details: U937, two hours at 37° C., 0.25-64 μM
Experimental: The direct membrane damage was investigated with the help of the CytoTox 96 Non-Radioactive Cytotoxicity Assay (Promega, Mannheim, Germany). For this purpose, the cells were sedimented at 100 g for ten minutes at 4° C., and 50 μl of the resulting culture supernatant were added to 50 μl of the CytoTox substrate mix. After an incubation time of 30 minutes in the dark at room temperature, 50 μl of the CytoTox stopping solution were added to the sample and the absorption was measured at 490 nm. To determine the LD50 value, the measurement value of the negative control was deducted from the absorption values and divided by the measurement value of the permeabilization control. The calculated values were plotted graphically against the peptide concentration and fitted using the Origin pro 8.1 G Software according to a sigmoidal model and the LD50 values were ascertained from this. The calculation was carried out analogously to example 5 by reference to the solution of equation 5.1 for the case y=50, where y in this case corresponds to the relative cytotoxicity in percent and x corresponds to the peptide concentration in μM. Representative graphical evaluations of LD50 values are shown in FIG. 6 by reference to the measurement results for the reference peptides BMAP-27, protamine and KL-helix, and also the peptide O1 according to the invention.

[3] = MHB, 18 hours at 37° C., mean of four test series

Substance	MIC E. coli (E. coli DH5α; DH5α, 18 h) [µM]	MIC S. xylosus (Staphylococcus xylosus; 18 h) [µM]	Toxicity MTC (minimum toxic concentration) [1] [µM]	Toxicity LD50 [2] [µM]	MIC E. coli (E. coli DH5α; [3]) [µM]	MIC S. xylosus (Staphylococcus xylosus; [3]) [µM]
GSGILILIKRK [M5]	>64	>64	>64	>64		
ILIKRK [N7, ILIKRK]	>64	>64	>64	>64		
ILILIKRK [N5]	64	64	>64	>64		
ILILILILKRK [M3]	>64	>64	>64	>64		
KKKFFFFFKKK [S8]	16	4		>64		
KKKIIIIIIKKK-NH2 [O1′]					4	0.25
KKKIIIIIKKK [S2]	8	0.5		>64		
KKKKKIIIIIDDDDD [D1]	>64	>64	>64	>64		
KKKKKIIIIIDDDDK [D8]	>64	>64	>64	>64		
KKKKKIIIIIDDDKK [D7]	>64	>64	>64	>64		
KKKKKIIIIIDKKKK [D6]	32	16	>64	>64		
KKKKKIIIIIKDDDD [D2]	>64	>64	>64	>64		
KKKKKIIIIIKKKDD [D3]	>64	32	>64	>64		
KKKKKIIIIIKKKKD [D4]	32	16	>64	>64		
KKKKKIIIIIKKKKK [D5]	16	2	>64	>64		
KKKLLLLLKKK [S4]	16	8		>64		

Substance	MIC E. coli (E. coli DH5α; DH5α, 18 h) [µM]	MIC S. xylosus (Staphylococcus xylosus; 18 h) [µM]	Toxicity MTC (minimum toxic concentration) [1] [µM]	Toxicity LD50 [2] [µM]	MIC E. coli (E. coli DH5α; [3]) [µM]	MIC S. xylosus (Staphylococcus xylosus; [3]) [µM]
KKKVVVVVKKK [S6]	64	8		>64		
KLILKRKRKRILIK [A4]	32	16	>64	>64		
KRKGKRK [H7, KRKGKRK]	>64	64	>64	>64		
KRKGSGKRK [H8]	>64	>64	>64	>64		
KRKIKRK [H5, KRKIKRK]	>64	>64	>64	>64		
KRKIL [C8, KRKIL]	>64	>64	>64	>64		
KRKILI [C7, KRKILI]	>64	>64	>64	>64		
KRKILIKRK [H3]	>64	64	>64	>64		
KRKILIL [C6, KRKILIL]	>64	>64	>64	>64		
KRKILILI [C5]	>64	>64	>64	>64		
KRKILILIGSG [M4]	>64	>64	>64	>64		
KRKILILIK [C4]	32	8	>64	>64		
LKLLKKLLKKLLKLL [KL-helix]	4	2	8.0			
RRRFFFFFRRR [S7]	4	0.5		>64		
RRRIIIIIRRR [S1]	8	2		>64		
RRRLLLLLRRR [S3]	8	1		>64		
